From patent US8772292B2, “Process for the preparation of a medicament comprising vardenafil hydrochloride trihydrate” (Ratiopharm GmbH, priority 2007, dated 2014) come the findings set out here.

Counter-ions that a name gives are not always drawn.

This data set is described as follows: Raman spectra after processing steps (hydrate stability in tablets). It counts as physicochemical. As for the experimental part: Vardenafil hydrochloride trihydrate and anhydrate can be identified and distinguished from one another e.g. by means of Raman spectroscopy.
Raman spectra were recorded after the processing steps of precompacting, subsequent mixing, pressing and coating (FIGS. 1 and 2). For this, the film was scratched off from the film-coated tablets beforehand. The Raman spectra of the pure vardenafil hydrochloride trihydrate and of the anhydrate are also shown for comparison.
In the relevant range of 1694-1702 cm^−1, the auxiliaries used in Example 1 had no influence on the vardenafil bands (measurement on a placebo tablet is not also shown).

As for `CCCc1nc(C)c2c(=O)[nH]c(-c3cc(S(=O)(=O)N4CCN(CC)CC4)ccc3OCC)nn12` [Vardenafil hydrochloride trihydrate, {2-ethoxy-5-[(4-ethyl-1-piperazinyl)sulfonyl]phenyl}-5-methyl-7-propylimidazo-[5,1-f][1,2,4]triazin-4(3H)one], the “stability of the hydrate under the processing conditions” value runs as follows: (Example 4: coating at intake air temperature of 60-65° C.) “dehydrated”; (Examples 1 to 3: approx. 23° C., 33-35% rel. humidity, coating intake air 45° C.) “stable”.
